Assay results reported in article PMC11912270, “Synthesis and SAR Studies of Acyl-Thiourea Platinum(II) Complexes Yield Analogs with Dual-Stage Antiplasmodium Activity” (ACS Medicinal Chemistry Letters, 2025).
Where two headings read alike, the source gives them in different places.

What was measured:
[1] = Kinetic solubility by HPLC (pH 6.5); conditions: for Aqueous solubility pH 6.5: kinetic, HPLC
Description: 1.7. Kinetic solubility by HPLC (pH 6.5)
Solubility was measured at pH 6.5 using an adapted miniaturized shake-flask method, in 96-well plate format.4,5 Briefly, 4 µL of a 10 mM stock in DMSO was added to a 96-well plate and evaporated using a GeneVac system. Phosphate buffer pH 6.5 was then added to the wells […]
At the end of this incubation, the […]
in the analysis plate. Analysis was then performed by HPLC-DAD and the solubility of each sample was determined from the corresponding calibration curve. […]

[2] = tested on: ABS parasites; assay: Dual point activity against ABS parasites; type: cell-based, Plasmodium falciparum; conditions: single biological repeat
Description: Table S2: Dual point activity of platinum(II) complexes against ABS parasites, early- and late-
stage gametocytes. Values are averaged from technical triplicates performed for a single

[3] = Single-point microsomal metabolic stability, human; type: in vitro ADME; conditions: human liver microsomes; for Microsomal metabolic stability (% remaining after 30 min) Human: 1 µM
Description: (§1) 1.8. Microsomal metabolic stability studies […]
(§2) rat IGS, Xenotech), and mouse (male mouse CD1, Xenotech) liver microsomes (0.4 mg/ml) for 30 min at 37 °C. Reactions were quenched by adding ice-cold acetonitrile containing […]
(§3) disappearance of the parent compound. Half-life, clearance, and hepatic excretion ratios were determined using standard equations.6,7 Propranolol. […]

[4] = tested on: Chinese hamster ovary (CHO) cell line; assay: MTT cytotoxicity assay; type: cell-based; conditions: 48 h, read-out: CHO IC50
Description: 1.6.In vitro cytotoxicity assay
A 3-(4,5-dimethylthiazol-2-yl)-2,5-diphenyltetrazoliumbromide (MTT) assay was used to screen the metal complexes against the mammalian Chinese hamster ovarian (CHO) cell line.
A stock solution of each compound (2 mg/mL) in DMSO was prepared and kept at -20 °C until needed. Emetine was used as a reference drug. A starting concentration of 100 µg/mL was used, and serially diluted ten-fold using a complete medium to give the lowest concentration of 0.001 µg/mL (6 dilutions). The plates containing the CHO cells under drug pressure were […]
Plates containing the drug and cell suspension were developed by adding 25 μL of sterile MTT (Thermo Fisher Scientific) (25 µL) to each well, followed by 4 h […]
of incubation at room temperature in the dark. The plates were then centrifuged, and the supernatant was removed via aspiration. Sample absorbance was read at a wavelength of 540 […]
analysis via GraphPad Prism v.4.0 software. The IC50 values were determined for each compound were determined from the dose-response curves. […]

[5] = tested on: late-stage gametocytes (NF54-PfS16-GFP-Luc); assay: Luciferase reporter assay, late-stage gametocytes; type: cell-based, Plasmodium falciparum; conditions: for LG (% inhibition) 1 µM / LG (% inhibition) 5 µM: single biological repeat
Description: (§4) All the complexes were tested for their early- and late-stage gametocyte activity in a dual-point assay (1 μM and 5 μM). […]
(§5) 1.5.In vitro activity against gametocyte stages
(§6) PfNF54 gametocytes were prepared and isolated according to the method reported by Reader […]
(§7) The in vitro gametocyte activity of the synthesized complexes was determined using a luciferase reporter line-based assay.
(§8) NF54-PfS16-GFP-Luc parasites were used for the stage-specific assessment of gametocytocidal activity. Early-stage gametocyte (stage I-III) experiments were performed on day 5 (representing >90% of early-stage and late-stage gametocyte (stages IV/V) experiments were performed on day 10. In each experiment, assays were set up with the use of 2-3% […]
(§9) Luciferase activity was determined in 30 µL parasite lysates by adding luciferin substrate (30 µL) (Promega Luciferase Assay System) at room temperature. […]

[6] = tested on: PfNF54 ABS parasites; assay: SYBR Green I-based proliferative assay, PfNF54 ABS parasites; type: cell-based, Plasmodium falciparum; conditions: ABS, SYBR Green I, 96 h; mean ± S.E., N = 3 (no S.E.: N = 1)
Description: (§10) The parasites were incubated under drug […]
(§11) incubation, parasite survival was determined by adding equal volumes of parasite suspension (100 µL) and SYBR Green I lysis buffer (0.2% µL/mL of 10 000x SYBR Green I, 20 mM Tris-HCl, pH 7.5, 5 mM EDTA, 0.008% saponin (w/v) and 0.08% Triton x-100). This was incubated for 1 hour at room temperature in the dark. […]

[7] = tested on: PfK1 ABS parasites; type: cell-based, Plasmodium falciparum; conditions: for IC50: ABS, SYBR Green I, 96 h, mean ± S.E.; for RI (resistance index): RI = PfK1 IC50/PfNF54 IC50
Description: as §10, §11

[8] = Single-point microsomal metabolic stability, mouse; type: in vitro ADME; conditions: for Microsomal metabolic stability (% remaining after 30 min) Mouse: mouse liver microsomes, 1 µM
Description: as §1, §2, §3

[9] = Cyclic voltammetry; type: physicochemical; conditions: for Epa1: anodic peak potential; for Epa1 / Epc1: 0.1 V/s; for Epc1: cathodic peak potential; for Epc2: second nonreversible reduction
Description: It is known that Fe^2+/Fe^3+ redox chemistry has an important role in the bioactivity of ferrocene derivatives.[33] The production of reactive oxygen species (ROS) is one of the modes of action of ferroquine and other ferrocene derivatives[34] and is linked to the correlation between their bioactivity and electrochemical behavior. We determined whether a similar correlation could be made for the mixed-ligand platinum(II) complexes reported herein given that metal centers have the potential to be oxidized and reduced. The electrochemistry of the complexes was studied using cyclic voltammetry (CV), which uses a triangular potential waveform. The CV experiments were performed in either dry MeOH or DMF containing tetrabutylammonium chloride (TBACl) as the supporting electrolyte. The working electrode was glassy carbon with a platinum wire as the counter electrode and Ag/AgCl as the reference. The anodic (Epa) and cathodic (Epc) peak potentials at 0.1 V/s and half-wave potentials (E1/2) were measured (Table 3). All of the tested complexes undergo reversible one-electron Pt^2+/Pt^+ reductions (Figures S38–S46). Complexes C2, C4, and C8 undergo a second nonreversible reduction (Epc2), which is most likely ligand-based and linked to reductions of the substituent on the bpy. Looking at SAR2, the more electron-withdrawing the substituent, the […] the E1/2 (V vs Fe/Fe^+) value was. This trend was expected, as a more electron-withdrawing substituent reduces the electron density around the metal center, making it easier for the metal to be reduced from Pt^2+ to Pt^+. […] This is also the case for other bpy-containing platinum(II) complexes that only undergo reductions.[35],[36] […]
For the cyclic voltammetry experiments a solution of the test compound (1 x 10-3) in DMSO (3 mL) is added to the electrolyte solution (0.1 M tetrabutylammonium chloride (TBACl) in DMSO). The electrochemical measurements were obtained using a Basi Epsilon Eclipse Electrochemical Analyzer Potentiostat and the CV graphs were generated using Excel. The working electrode was glassy carbon (GC) with platinum wire as the counter electrode (CE) and Ag/AgCl as the reference. […]

[10] = tested on: early-stage gametocytes (NF54-PfS16-GFP-Luc); assay: Luciferase reporter assay, early-stage gametocytes; type: cell-based, Plasmodium falciparum; conditions: for EG (% inhibition) 1 µM / EG (% inhibition) 5 µM: single biological repeat; for IC50: early (II/III) gametocytes, luciferase, 48 h, read-out: EG IC50
Description: as §4, §5, §6, §7, §8, §9

[11] = tested on: PfNF54; assay: 72 h pLDH assay, PfNF54 (precursor compounds); type: cell-based, Plasmodium falciparum; conditions: for inhibition of Pf proliferation: maximum concentration of 5 μM, PfNF54; for IC50: read-out: PfNF54 IC50
Description: Lastly, the pharmacological effect of substitution with a methyl group at different positions on the bpy ring was determined (SAR4). Changing from the 4,4′-positions (C2) to the 5,5′-positions (C14) improved the PfNF54 activity by 5-fold, whereas changing to the 6,6′-positions (C15) decreased the activity by 2-fold.

[12] = tested on: Pf3D7 strain; conditions: cited from earlier work
[13] = tested on: PfK1; conditions: cited from earlier work
[14] = late (IV/V) gametocytes, luciferase, 48 h, read-out: LG IC50
[15] = half-wave potential corrected to ferrocene

| Molecule | Aqueous solubility pH 6.5 [1] [μM] | ABS (% inhibition) 1 µM [2] [% inhibition] | ABS (% inhibition) 5 µM [2] [% inhibition] | Microsomal metabolic stability (% remaining after 30 min) Human [3] [% remaining] | IC50 ([4]; cytotoxicity, MTT, N, n = 1, 3) [µM] | LG (% inhibition) 1 µM [5] [% inhibition] | LG (% inhibition) 5 µM [5] [% inhibition] | IC50 [5, 14] [µM] | IC50 [6] [µM] | IC50 [7] [µM] | Microsomal metabolic stability (% remaining after 30 min) Mouse [8] [% remaining] | Epa1 [9] | Epc1 [9] | E1/2 [9, 15] | Epc2 [9] | EG (% inhibition) 1 µM [10] [% inhibition] | EG (% inhibition) 5 µM [10] [% inhibition] | IC50 [10] [µM] | other results |
| --- | --- | --- | --- | --- | --- | --- | --- | --- | --- | --- | --- | --- | --- | --- | --- | --- | --- | --- | --- |
| Cc1cc[n+]2c(c1)-c1cc(C)cc[n+]1[Pt-2]21[O+]=C(c2ccccc2)N=C(N(CCO)CCO)[S]1.[Cl-] [C2] | 170 | 70.9 | 104.0 | 70 | > 50 | 11.3 | 25.5 | > 20 | 1.42 ± 0.276 | 0.541 ± 0.044 | 72 | –1.074 V | –1.016 V | –1.585 V vs Fe/Fe^+ | –1.084 V vs Ag/Ag^+ | 19.9 | 7.9 | > 20 | RI (resistance index) [7]: 0.4; E1/2 ([9]; half-wave potential): –1.045 V vs Ag/Ag^+ |
| OCCN(CCO)C1=NC(c2ccccc2)=[O+][Pt-2]2([S]1)[n+]1ccccc1-c1cccc[n+]12.[Cl-] [C3] | – | 68.7 | 103.1 | 72 | > 50 | 14.8 | 39.8 | > 20 | 0.142 ± 0.012 | 0.184 ± 0.022 | 75 | –1.210 V | –1.014 V | – | – | 26.9 | 0.0 | > 20 | – |
| COc1cc[n+]2c(c1)-c1cc(OC)cc[n+]1[Pt-2]21[O+]=C(c2ccccc2)N=C(N(CCO)CCO)[S]1.[Cl-] [C4] | 195 | 67.1 | 99.8 | 63 | > 50 | 14.8 | 54.4 | > 20 | 0.266 ± 0.029 | 0.164 ± 0.007 | 88 | –1.136 V | –1.064 V | –1.640 V vs Fe/Fe^+ | –1.515 V vs Ag/Ag^+ | 6.8 | 9.1 | > 20 | RI (resistance index) [7]: 0.6; E1/2 ([9]; half-wave potential): –1.100 V vs Ag/Ag^+ |
| OCCN(CCO)C1=NC(c2ccccc2)=[O+][Pt-2]2([S]1)[n+]1ccc(C(F)(F)F)cc1-c1cc(C(F)(F)F)cc[n+]12.[Cl-] [C8] | – | 10.6 | 29.9 | 47 | > 50 | 80.6 | 85.8 | 0.38 | > 5 | – | 46 | –0.710 V | –0.607 V | –1.076 V vs Fe/Fe^+ | –1.272 V vs Ag/Ag^+ | 26.2 | 50.0 | > 20 | IC50 ([5]; gametocyte stage not specified, read-out: gametocidal activity IC50): < 5 µM |
| COC(=O)c1cc[n+]2c(c1)-c1cc(C(=O)OC)cc[n+]1[Pt-2]21[O+]=C(c2ccccc2)N=C(N(CCO)CCO)[S]1.[Cl-] [C10] | <5 | 7.11 | 17.3 | – | > 50 | 0.6 | 6.1 | > 20 | > 5 | – | – | – | – | – | – | 3.7 | 4.2 | > 20 | – |
| [Cl][Pt-2]([Cl])([Cl])[Cl].[K+].[K+] [K2PtCl4, potassium tetrachloroplatinate] | – | – | – | – | > 50 | – | – | – | – | – | – | – | – | – | – | – | – | – | inhibition of Pf proliferation [11]: did not inhibit Pf proliferation; IC50 ([11]; precursor compounds, 72 h pLDH assay): > 5 µM |
| CS(=O)(=O)c1ccc(-c2cnc(N)c(-c3ccc(C(F)(F)F)nc3)c2)cc1 [MMV390048, reference compound] | – | – | – | – | – | – | – | – | – | – | – | – | – | – | – | – | – | – | solubility at 24 h ([1]; phosphate buffer, 25 °C, pH 6.5, aqueous buffer, thermodynamic from solid): < 5 µM; remaining at 0.5 h, 1 µM ([3]; both sexes, 30 min, read-out: Microsomal metabolic stability (% remaining after 30 min) Human): > 95%; remaining at 0.5 h, 1 µM ([8]; male, CD1, mouse liver microsomes, 30 min, read-out: Microsomal metabolic stability (% remaining after 30 min) Mouse): > 95% |
| O=C(NC(=S)N(CCO)CCO)c1ccccc1 [compound 2] | – | – | – | – | – | – | – | – | – | – | – | – | – | – | – | – | – | – | IC50 ([4]; Cricetulus griseus, CHO): > 50 µM; IC50 ([11]; Plasmodium falciparum, 72 h): > 5 µM; inhibition of Pf proliferation [11]: did not inhibit Pf proliferation |
| ferroquine [FQ] | – | – | – | – | – | – | – | – | – | – | – | – | – | – | – | – | – | – | fold increase in activity compared to CQ [12]: 1.7 fold; fold increase in activity compared to CQ [13]: 25 fold |
